Reference: the NIST ThermoML archive (doi:10.1021/je5009334)

Assay: xn = mol fraction of the nth substance listed
Conditions: 101 kPa, Liquid; for speed of sound: Sing-around technique in a fixed-path interferometer; for mass density: Vibrating tube method

CCC(O)CO (stereo not given) [1,2-butanediol] + CCC(C)O
Conditions | mass density, 298.15 K [kg/m3] | mass density, 303.15 K [kg/m3] | mass density, 308.15 K [kg/m3] | speed of sound, 298.15 K [m/s] | speed of sound, 303.15 K [m/s] | speed of sound, 308.15 K [m/s]
x1 = 0.1 | 821.98 | 817.802 | 813.551 | 1231 | 1213.1 | 1195.3
x1 = 0.2 | 841.211 | 837.068 | 832.862 | 1250.6 | 1233.5 | 1216
x1 = 0.3 | 860.512 | 856.416 | 852.256 | 1270.9 | 1253.8 | 1236.8
x1 = 0.4 | 879.912 | 875.848 | 871.737 | 1292.2 | 1275.5 | 1258.8
x1 = 0.5 | 899.493 | 895.477 | 891.419 | 1315.5 | 1299.1 | 1282.9
x1 = 0.6 | 919.721 | 915.764 | 911.761 | 1340.2 | 1324.6 | 1308.7
x1 = 0.7 | 939.207 | 935.294 | 931.345 | 1365.7 | 1350 | 1334.5
x1 = 0.8 | 959.168 | 955.308 | 951.414 | 1393.3 | 1378.1 | 1362.8
x1 = 0.9 | 978.763 | 974.958 | 971.12 | 1423.1 | 1408.3 | 1393.4
x1 = 1 | 998.509 | 994.759 | 990.971 | 1452.6 | 1438.2 | 1423.6
